What is called melting point is the temperature of the solid-liquid transition.

The source of these data is patent US10464926B2, “Heterobicyclic compounds and their use for the treatment of tuberculosis” (OTSUKA PHARMACEUTICAL CO., LTD., priority 2014, dated 2019).

The test system of data set [1] is Mycobacterium tuberculosis (M. tuberculosis Kurono). The data set can be described thus: Antibacterial test (agar dilution method), M. tuberculosis Kurono. The data set is classed as cell-based. To be noted: 7H11 agar medium, about 10^6 CFU/mL, 37° C. for 14 days; for MIC: Mycobacterium tuberculosis, 336 h, read-out: Minimum inhibitory concentration (MIC) kurono. (In agar dilution, organisms are placed on agar that contains the substance at set levels.)

In data set [2] the test system is Mycobacterium tuberculosis (M. tuberculosis H37Rv). As to the kind of experiment: Antibacterial test (agar plate dilution method), M. tuberculosis H37Rv. Format: cell-based. The note with it: 336 h, 7H11 agar medium, about 10^6 CFU/mL, 37° C. for 14 days, read-out: minimum inhibitory concentration against M. tuberculosis H37Rv.

Regarding `O=C1CCc2c(OCC3(O)CCN(c4ccc(Cl)cc4F)CC3)ccc(F)c2N1` [Example 52, 5-{[1-(4-Chloro-2-fluorophenyl)-4-hydroxypiperidin-4-yl]methoxy}-8-fluoro-3,4-dihydroquinolin-2(1H)-one], the melting point was in the range of 190.6 to 190.7 °C. Further, the MIC in data set [1] is < 0.39 µg/mL.
On the same counts, the results for `CCOc1ccc(N2CCC(O)(COc3ccc(F)c4c3CCC(=O)N4)CC2)c(F)c1` [Example 85, 5-{[1-(4-Ethoxy-2-fluorophenyl)-4-hydroxypiperidin-4-yl]methoxy}-8-fluoro-3,4-dihydroquinolin-2(1H)-one] are 196 to 196.1 °C and < 0.39 µg/mL.
For `O=C1CCc2c(OCC3(O)CCN(c4c(F)cc(Cl)cc4F)CC3)ccc(Cl)c2N1` [Example 102, 8-Chloro-5-{[1-(4-chloro-2,6-difluorophenyl)-4-hydroxypiperidin-4-yl]methoxy}-3,4-dihydroquinolin-2(1H)-one], in that order: 181 to 181.2 °C and < 0.39 µg/mL.
Consider `O=c1ccc2c(OCC3(O)CCN(c4ccc(Cl)cc4F)CC3)cccc2[nH]1` [Example 138, 5-{[1-(4-Chloro-2-fluorophenyl)-4-hydroxypiperidin-4-yl]methoxy}quinolin-2(1H)-one], for which the melting point fell in the range of 275.7 to 277 °C. Besides, the MIC in data set [1] was < 0.39 µg/mL.
For `O=C1CCc2c(OCC3(O)CCN(c4ncc(Cl)cc4Cl)CC3)ccc(Cl)c2N1` [Example 139, 8-Chloro-5-{[1-(3,5-dichloropyridin-2-yl)-4-hydroxypiperidin-4-yl]methoxy}-3,4-dihydroquinolin-2(1H)-one], in that order: 218 °C and < 0.39 µg/mL.
On the same counts, the results for `O=C1CCc2c(OCC3(O)CCN(c4ccc(OCc5ccc(OC(F)(F)F)cc5)cc4F)CC3)ccc(F)c2N1` [Example 152, 8-Fluoro-5-{[1-(2-fluoro-4-{[4-(trifluoromethoxy)benzyl]oxy}phenyl)-4-hydroxypiperidin-4-yl]methoxy}-3,4-dihydroquinolin-2(1H)-one] are 199.9 to 200.5 °C and < 0.39 µg/mL.
On the same counts, the results for `COCCOc1cc(N2CCC(O)(COc3ccc(Cl)c4c3CCC(=O)N4)CC2)c(F)cc1Cl` [Example 175, 8-Chloro-5-({1-[4-chloro-2-fluoro-5-(2-methoxyethoxy)phenyl]-4-hydroxypiperidin-4-yl}methoxy)-3,4-dihydroquinolin-2(1H)-one] are 143.5 to 145.1 °C and < 0.39 µg/mL.
`O=C1CCc2c(OC[C@]3(O)CCN(c4ccc(Cl)cc4F)C[C@H]3O)ccc(F)c2N1` [Example 259, 5-{[(3R,4R)-1-(4-Chloro-2-fluorophenyl)-3,4-dihydroxypiperidin-4-yl]methoxy}-8-fluoro-3,4-dihydroquinolin-2(1H)-one]: the MIC in data set [1] and in data set [2] was < 0.39 µg/mL throughout.
Regarding `O=C1CCc2c(cccc2OC[C@]2(O)CCN(c3ccc(Br)cc3F)C[C@H]2O)N1` [Example 347, 5-{[(3R,4R)-1-(4-Bromo-2-fluorophenyl)-3,4-dihydroxypiperidin-4-yl]methoxy}-3,4-dihydroquinolin-2(1H)-one], the melting point was in the range of 226 to 227 °C. For the same compound, the MIC in data set [1] is < 0.39 µg/mL.
On the same counts, the results for `O=C1CCc2c(OC[C@@]3(O)CCN(c4ccc(Br)cc4F)C[C@H]3O)ccc(Cl)c2N1` [Example 364, 5-{[(3R,4S)-1-(4-Bromo-2-fluorophenyl)-3,4-dihydroxypiperidin-4-yl]methoxy}-8-chloro-3,4-dihydroquinolin-2(1H)-one] are 185.8 to 186 °C and < 0.39 µg/mL.
In turn, `O=C1CCc2c(OCC3CCN(c4ncc(Cl)cc4Cl)CC3)ccc(F)c2N1` [Example 399, 5-{[1-(3,5-Dichloropyridin-2-yl)piperidin-4-yl]methoxy}-8-fluoro-3,4-dihydroquinolin-2(1H)-one] had a melting point of 194 to 195 °C. In data set [1], the MIC is < 0.39 µg/mL.
Consider `O=C1CCc2c(OC[C@@]3(O)CCN(c4c(F)cc(Cl)cc4F)C[C@H]3F)ccc(F)c2N1` [Example 446, 5-{[(3R,4S)-1-(4-Chloro-2,6-difluorophenyl)-3-fluoro-4-hydroxypiperidin-4-yl]methoxy}-8-fluoro-3,4-dihydroquinolin-2(1H)-one], for which the melting point lay within 224 to 225 °C. In data set [1], the MIC was < 0.39 µg/mL.
The compound `O=C1CCc2c(OC[C@]3(O)CCN(c4c(F)cc(Cl)cc4F)C[C@@H]3F)ccc(F)c2N1` [Example 447, 5-{[(3S,4R)-1-(4-Chloro-2,6-difluorophenyl)-3-fluoro-4-hydroxypiperidin-4-yl]methoxy}-8-fluoro-3,4-dihydroquinolin-2(1H)-one] came in with a melting point of 224 to 225 °C. Moreover, in data set [1], the MIC is < 0.39 µg/mL.
On the same counts, the results for `O=C1CCc2c(OC[C@]3(O)CCN(c4c(F)cc(Cl)cc4F)C[C@H]3F)ccc(F)c2N1` [Example 448, 5-{[(3R,4R)-1-(4-Chloro-2,6-difluorophenyl)-3-fluoro-4-hydroxypiperidin-4-yl]methoxy}-8-fluoro-3,4-dihydroquinolin-2(1H)-one] are 207 to 209 °C and < 0.39 µg/mL.
On the same counts, the results for `O=C1CCc2c(OC[C@@]3(O)CCN(c4c(F)cc(Cl)cc4F)C[C@@H]3F)ccc(F)c2N1` [Example 449, 5-{[(3S,4S)-1-(4-Chloro-2,6-difluorophenyl)-3-fluoro-4-hydroxypiperidin-4-yl]methoxy}-8-fluoro-3,4-dihydroquinolin-2(1H)-one] are 209 to 210 °C and < 0.39 µg/mL.
Compound `O=C1CCc2c(SCC3(O)CCN(c4ccc(Cl)cc4F)CC3)ccc(F)c2N1` [Example 460, 5-({[1-(4-Chloro-2-fluorophenyl)-4-hydroxypiperidin-4-yl]methyl}sulfanyl)-8-fluoro-3,4-dihydroquinolin-2(1H)-one] showed a melting point of 171 to 172 °C. The MIC in data set [1] was < 0.39 µg/mL.
With `N#CC1(c2ccc(Cl)cc2F)CCC(O)(COc2ccc(F)c3c2CCC(=O)N3)CC1` (stereo not drawn) [Example 476, trans-1-(4-Chloro-2-fluorophenyl)-4-{[(8-fluoro-2-oxo-1,2,3,4-tetrahydroquinolin-5-yl)oxy]methyl}-4-hydroxycyclohexanecarbonitrile], in data set [1], the “Minimum inhibitory concentration (MIC) kurono” value is <0.39 µg/mL.
Still for that read-out and setting: the same measure for `COC1(c2ccc(Cl)cc2F)CCC(O)(COc2ccc(F)c3c2CCC(=O)N3)CC1` (stereo not drawn) [Example 477, 5-{[trans-4-(4-Chloro-2-fluorophenyl)-1-hydroxy-4-methoxycyclohexyl]methoxy}-8-fluoro-3,4-dihydroquinolin-2(1H)-one]: <0.39 µg/mL.
